Where two headings read alike, the source gives them in different places.
Experiments:
P. falciparum [1] = assay: In vitro antiplasmodial assay (P. falciparum NF54, intraerythrocytic); settings: for IC50: Plasmodium falciparum, NF54, read-out: IC50 P. falciparum; for selectivity ratio: rat
Description: The in vitro activity was assessed on T. b. rhodesiense (STIB900, bloodstream forms), T. cruzi (Tulahuen C2C4, intracellular amastigotes), L. donovani (MHOM-ET-67/L82, axenically grown amastigotes), P. falciparum (NF54, intraerythrocytic), and L6 cells (rat skeletal myoblasts) as previously described. Results are expressed in µg/mL for extracts and in µM for pure compounds.

P. falciparum [2] = tested on: P. falciparum; parameters: method as in PMID 11378289; settings: alkaloids from the methanol root extract of P. mutica; cited from earlier work
L. donovani = assay: In vitro antileishmanial assay (L. donovani MHOM-ET-67/L82, axenically grown amastigotes); type: cell-based, Leishmania donovani; settings: for IC50: Leishmania donovani, pure compounds and reference drug, mean of two independent assays, axenically grown amastigotes
Description: (§1) The in vitro activity was assessed on T. b. rhodesiense (STIB900, bloodstream forms), T. cruzi (Tulahuen C2C4, intracellular amastigotes), L. donovani (MHOM-ET-67/L82, axenically grown amastigotes), P. falciparum (NF54, intraerythrocytic), and L6 cells (rat skeletal myoblasts) as previously described [42].

[3] = Cytotoxicity against rat skeletal myoblast L6 cells; type: cell-based
Description: as §1

P. berghei = tested on: P. berghei; parameters: method as in PMID 11378289; settings: in vivo mouse model, daily doses of 25 mg/kg/day, compared to untreated control mice; cited from earlier work
T. cruzi [4] = tested on: T. cruzi; parameters: method as in PMID 25233577; settings: cited from earlier work
L. infantum = tested on: L. infantum; parameters: method as in PMID 25233577; settings: cited from earlier work
T. b. rhodesiense = assay: In vitro antitrypanosomal assay (T. b. rhodesiense STIB900, bloodstream forms); type: cell-based; settings: Trypanosoma brucei
Description: as §1

T. cruzi [5] = assay: In vitro antitrypanosomal assay (T. cruzi Tulahuen C2C4, intracellular amastigotes); type: cell-based; settings: Trypanosoma cruzi
Description: as §1

T. cruzi [6] = tested on: T. cruzi; parameters: method as in PMID 26755152; settings: previous study; cited from earlier work
[7] = Selectivity index (SI) = IC50 cytotoxicity/IC50 against parasite, L6 cells vs P. falciparum

Row | SMILES | IC50 (P. falciparum [1]) | IC50 (P. falciparum [2]) | IC50 (L. donovani) | IC50 ([3]; rat) | other results
1 | CCN(CC)CCCC(C)Nc1ccnc2cc(Cl)ccc12 (stereo not shown) [Chloroquine, reference compound] | 0.006 µM |  |  |  | 
2 | COC(=O)[C@@H]1CC23CCCN4CC[C@@]5(c6ccccc6NC15CC2)[C@@H]43 (stereo partly shown) [Compound 2, kopsinine] |  | > 200 µM |  |  | 
3 | CC=C1C[N+]2(C)C3CC1C(CO)(C(=O)OC)C2Cc1c3[nH]c2ccccc12 (stereo not shown) [Compound 6, macusine A] | 26.9 µM |  | > 50 µM |  | selectivity ratio (P. falciparum [1]; [7]): 10.1; IC50 ([3]; L6 cells (rat skeletal myoblasts), pure compounds and reference drug, rat skeletal myoblast L6 cells, mean of two independent assays, read-out: IC50 Cytotoxicity): 272 µM
4 | COC(=O)[C@@H]1CC23CCCN4CC[C@@]5(c6ccccc6N(C(=O)OC)C15CC2)[C@@H]43 (stereo partly shown) [Compound 11, pleiocarpine] | 26.6 µM | > 200 µM | > 50 µM | 156 µM | reduced parasitemia (P. berghei): 28.5%; selectivity ratio (P. falciparum [1]): 5.8
5 | CC[C@H]1[C@@H]2CCN3CC[C@@]4(C(=C2C(=O)OC)Nc2ccccc24)[C@@H]13 [Compound 13, tubotaiwine] | 8.5 µM |  | > 50 µM | 197 µM | Selectivity index (SI) = IC50 cytotoxicity/IC50 against parasite (P. falciparum [1]; L6 cells vs P. falciparum): 23.2; selectivity ratio (P. falciparum [1]; [7]): 23.4; activity against T. cruzi (T. cruzi [4]): no activity; IC50 (L. infantum): 17.3 µM
6 | CCC1C2CCN3CCC4(C(=C2C(=O)OC)Nc2ccccc24)C13 [Compound 15, methyl (7S,15R,20R,21S)-20-ethyl-5,6,14,15,21-hexahydro-15,21-ethanopyrrolo[5,21-d]carbazole-16-carboxylate-methane] | > 50 µM |  | > 50 µM |  | IC50 (T. b. rhodesiense): > 50 µM; IC50 (T. cruzi [5]): > 50 µM
7 | C=C[C@H]1[C@H](O[C@@H]2O[C@H](CO)[C@@H](O)[C@H](O)[C@H]2O)OC=C(C(=O)OC)[C@H]1CC(=O)O [Compound 16, secoxyloganin] | > 50 µM |  | 25.3 µM | 294 µM | selectivity ratio (L. donovani; rat, L6 cells vs L. donovani, read-out: Selectivity index (SI) = IC50 cytotoxicity/IC50 against parasite): 11.6; IC50 (T. cruzi [6]): > 150 µM
8 | CCCCCCCCCCCCCCCCOP(=O)([O-])OCC[N+](C)(C)C [Miltefosine, reference compound] |  |  | 0.554 µM |  | 
9 | COc1cc([C@@H]2c3cc4c(cc3[C@H](O)[C@H]3COC(=O)[C@H]23)OCO4)cc(OC)c1OC [Podophyllotoxin, reference compound] |  |  |  |  | IC50 ([3]; pure compounds and reference drug, rat skeletal myoblast L6 cells, mean of two independent assays, read-out: IC50 Cytotoxicity): 0.027 µM
10 | C/C=C1/CN2CC[C@@]34CN5c6c(cccc6[C@@]67CCN8CCC[C@@]9(CC[C@@]56[C@@H]9C)[C@H]87)[C@@]35[C@@H]2C[C@@H]1[C@@H](C(=O)OC)N5c1ccccc14 [pleiomutinine, reference compound] |  | 5 µM |  |  | 

From article PMC9000413, “Isolation and Structural Elucidation of Compounds from Pleiocarpa bicarpellata and Their In Vitro Antiprotozoal Activity” (Molecules, 2022)
